Assay results published in patent US10173991B2, “Sulfone amide linked benzothiazole inhibitors of endothelial lipase” (BRISTOL-MYERS SQUIBB COMPANY, priority 2014, dated 2019).
Like-named read-outs stand apart in the source and are kept apart here.

Molecular target: Endothelial lipase (EL) (Homo sapiens (Human), UniProt Q9Y5X9)
Assay: Endothelial lipase (EL) enzymatic assay with fluorescent substrate A10070 in DMPG vesicles
Format: biochemical
In short: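 EL from conditioned medium of HT-1080 cells engineered to overexpress endogenous EL; HL partially purified from conditioned medium of HL-overexpressing COS cells. Enzyme preincubated with compound 30 min at 37° C in 50 mM HEPES pH 8.0, 50 mM NaCl, 1 mM CaCl2; DMPG vesicles carrying FRET substrate (0.11 mole fraction) then added.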

[1] = EL from conditioned media of HT-1080 cells, 30 min preincubation at 37° C.

Sequence of Endothelial lipase (EL) (Q9Y5X9 21-500): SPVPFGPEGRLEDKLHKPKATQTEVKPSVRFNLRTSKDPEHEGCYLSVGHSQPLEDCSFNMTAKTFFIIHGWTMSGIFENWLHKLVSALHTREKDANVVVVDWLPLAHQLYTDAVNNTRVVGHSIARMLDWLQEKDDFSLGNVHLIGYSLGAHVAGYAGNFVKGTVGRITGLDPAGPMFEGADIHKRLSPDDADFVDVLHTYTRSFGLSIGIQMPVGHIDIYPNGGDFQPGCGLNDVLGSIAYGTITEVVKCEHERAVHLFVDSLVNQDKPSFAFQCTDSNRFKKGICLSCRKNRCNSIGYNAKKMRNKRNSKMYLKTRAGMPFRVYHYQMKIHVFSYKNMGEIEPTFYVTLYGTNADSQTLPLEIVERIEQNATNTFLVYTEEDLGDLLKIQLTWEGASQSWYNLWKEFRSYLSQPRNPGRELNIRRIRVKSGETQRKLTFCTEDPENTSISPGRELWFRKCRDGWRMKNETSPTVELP

IC50 | IC50 [1] | SMILES
0.021 µM | – | COC(=O)Nc1cccc(-c2cc(F)c3nc(C(C(=O)NCC(=O)NC4CC4)S(=O)(=O)N(C)C)sc3c2)c1 (stereo not shown) [Example 503, methyl N-{3-[2-({[(cyclopropyl-carbamoyl)methyl]carbamoyl} (dimethyl-sulfamoyl)methyl)-4-fluoro-1,3-benzothiazol-6-yl]phenyl} carbamate]
0.002 µM | – | O=C(CNC(=O)C(c1nc2cc(F)c(-c3ccc(NC(=O)OCc4ccccn4)cc3)cc2s1)S(=O)(=O)CCC(F)(F)F)NC1CC1 (stereo not shown) [Example 520, pyridin-2-ylmethyl N-{4-[2-({[(cyclopropyl-carbamoyl)methyl]carbamoyl}(3,3,3-trifluoropropane-sulfonyl)methyl)-5-fluoro-1,3-benzothiazol-6-yl]phenyl}carbamate]
– | 0.0021 µM | COCCS(=O)(=O)C(C(=O)NCC(=O)NC1CC1)c1nc2cc(F)c(-c3ccc(-c4ncon4)cc3)cc2s1 (stereo not shown) [Example 411, 2-(6-(4-(1,2,4-Oxadiazol-3-yl)phenyl)-5-fluorobenzo[d]thiazol-2-yl)-N-(2-(cyclopropylamino)-2-oxoethyl)-2-((2-methoxyethyl)sulfonyl)acetamide]
0.009 µM | – | COCCS(=O)(=O)C(C(=O)NCC(=O)NC1CC1)c1nc2ccc(-c3ccc4c(c3)CNC4=O)cc2s1 (stereo not shown) [Example 340, N-[(cyclopropyl-carbamoyl)methyl]-2-(2-methoxyethane-sulfonyl)-2-[6-(1-oxo-2,3-dihydro-1H-isoindol-5-yl)-1,3-benzothiazol-2-yl]acetamide]
0.001 µM | – | COCCS(=O)(=O)C(C(=O)NCC(=O)NC1CC1)c1nc2cc(F)c(-c3ccc(-n4ncc(C(N)=O)c4N)cc3)cc2s1 (stereo not shown) [Example 586, 5-amino-1-{4-[2-({[(cyclopropyl-carbamoyl)methyl]carbamoyl}(2-methoxyethane-sulfonyl)methyl)-5-fluoro-1,3-benzothiazol-6-yl]phenyl}-1H-pyrazole-4-carboxamide]
0.005 µM | – | COC(=O)Nc1ccc(-c2cc3sc(C(C(=O)NCC(=O)NC4CC4)S(C)(=O)=O)nc3cc2OC(F)F)cc1 (stereo not shown) [Example 607, methyl N-{4-[2-({[(cyclopropyl-carbamoyl)methyl]carbamoyl} (methanesulfonyl)methyl)-5-(difluoromethoxy)-1,3-benzothiazol-6-yl]phenyl} carbamate]
– | 0.0029 µM | CC(C)OCCNC(=O)CNC(=O)C(c1nc2ccc(-c3ccc4c(c3)CNC4=O)cc2s1)S(C)(=O)=O (stereo not shown) [Example 287, N-(2-((2-Isopropoxyethyl)amino)-2-oxoethyl)-2-(methylsulfonyl)-2-(6-(1-oxoisoindolin-5-yl)benzo[d]thiazol-2-yl)acetamide]
0.063 µM | – | COCCS(=O)(=O)C(C(=O)NCC(=O)NC1CC1)c1nc2cc(-c3cccc(C(=O)NCCO)c3)ccc2s1 (stereo not shown) [Example 399, 3-[2-({[(cyclopropyl-carbamoyl)methyl]carbamoyl}(2-methoxyethane-sulfonyl)methyl)-1,3-benzothiazol-5-yl]-N-(2-hydroxyethyl) benzamide]
0.188 µM | – | COCCS(=O)(=O)C(C(=O)NCC(=O)NC1CC1)c1nc2ccc(-c3cccc(Cl)n3)cc2s1 (stereo not shown) [Example 312, 2-[6-(6-chloropyridin-2-yl)-1,3-benzothiazol-2-yl]-N-[(cyclopropyl-carbamoyl)methyl]-2-(2-methoxyethane-sulfonyl)acetamide]
0.16 µM | – | COCCS(=O)(=O)C(C(=O)NCC(=O)NC1CC1)c1nc2ccc(-c3ccc(F)nc3F)cc2s1 (stereo not shown) [Example 302, N-[(cyclopropyl-carbamoyl)methyl]-2-[6-(2,6-difluoropyridin-3-yl)-1,3-benzothiazol-2-yl]-2-(2-methoxyethane-sulfonyl)acetamide]
0.01 µM | – | COCCS(=O)(=O)C(C(=O)NCC(=O)NC1CC1)c1nc2ccc(-c3ccc(C(=O)N4CC(F)C4)cc3)cc2s1 (stereo not shown) [Example 404]
0.024 µM | – | COCCS(=O)(=O)C(C(=O)NCC(=O)NCCOC(C)C)c1nc2cc(-c3ccc4c(c3)CNC4=O)c(F)cc2s1 (stereo not shown) [Example 354, 2-[6-fluoro-5-(1-oxo-2,3-dihydro-1H-isoindol-5-yl)-1,3-benzothiazol-2-yl]-2-(2-methoxyethane-sulfonyl)-N-({[2-(propan-2-yloxy)ethyl]carbamoyl}methyl)acetamide]
0.009 µM | – | CN1C(=O)Cc2cc(-c3cc4sc(C(C(=O)NCC(=O)NC5CC5)S(C)(=O)=O)nc4cc3F)ccc21 (stereo not shown) [Example 374, N-[(cyclopropyl-carbamoyl)methyl]-2-[5-fluoro-6-(1-methyl-2-oxo-2,3-dihydro-1H-indol-5-yl)-1,3-benzothiazol-2-yl]-2-methanesulfonyl-acetamide]
0.043 µM | – | COCCS(=O)(=O)C(C(=O)NCC(=O)NC1CC1)c1nc2c(F)cc(-c3ccc(F)nc3)cc2s1 (stereo not shown) [Example 514, N-[(cyclopropyl-carbamoyl)methyl]-2-[4-fluoro-6-(6-fluoropyridin-3-yl)-1,3-benzothiazol-2-yl]-2-(2-methoxyethane-sulfonyl)acetamide]
0.009 µM | – | COCCS(=O)(=O)C(C(=O)NCC(=O)NC1CC1)c1nc2cc(F)c(-c3ccc4c(c3)OCCN4C(=O)OCc3ccccc3)cc2s1 (stereo not shown) [Example 419, benzyl 7-[2-({[(cyclopropyl-carbamoyl)methyl]carbamoyl}(2-methoxyethane-sulfonyl)methyl)-5-fluoro-1,3-benzothiazol-6-yl}-3,4-dihydro-2H-1,4-benzoxazine-4-carboxylate]

Further lines, the compound ahead of its results:

SMILES | IC50 | IC50 [1]
O=C(CNC(=O)C(c1nc2cc(F)c(-c3cccc(-c4cc[nH]n4)c3)cc2s1)S(=O)(=O)CCC(F)(F)F)NC1CC1 (stereo not shown) [Example 143, N-[(cyclopropyl-carbamoyl)methyl]-2-{5-fluoro-6-[3-(1H-pyrazol-3-yl)phenyl]-1,3-benzothiazol-2-yl}-2-(3,3,3-trifluoropropane-sulfonyl) acetamide] | 0.003 µM | –
COCCS(=O)(=O)C(C(=O)NCC(=O)NC1CC1)c1nc2cc(C)c(-c3ccc4c(cnn4C)c3)cc2s1 (stereo not shown) [Example 148, N-[(cyclopropyl-carbamoyl)methyl]-2-(2-methoxyethane-sulfonyl)-2-[5-methyl-6-(1-methyl-1H-indazol-5-yl)-1,3-benzothiazol-2-yl] acetamide] | 0.002 µM | –
COCCS(=O)(=O)C(C(=O)NCC(=O)NC1CC1)c1nc2cc(C)c(-c3cnc(C)nc3)cc2s1 (stereo not shown) [Example 174, N-[(cyclopropyl-carbamoyl)methyl]-2-(2-methoxyethane-sulfonyl)-2-[5-methyl-6-(2-methylpyrimidin-5-yl)-1,3-benzothiazol-2-yl]acetamide] | 0.035 µM | –
COCCS(=O)(=O)C(C(=O)NCC(=O)NC1CC1)c1nc2cc(-c3cnnc(C)c3)ccc2s1 (stereo not shown) [Example 67, N-[(cyclopropyl-carbamoyl)methyl]-2-(2-methoxyethane-sulfonyl)-2-[5-(6-methylpyridazin-4-yl)-1,3-benzothiazol-2-yl]acetamide] | 0.016 µM | –
CCCCS(=O)(=O)C(C(=O)NCC(=O)NC1CC1)c1nc2cc(F)c(-c3ccc(NC(=O)OCc4ccccc4)cc3)cc2s1 (stereo not shown) [Example 53, benzyl N-(4-{2-[(butane-1-sulfonyl) ({[(cyclopropyl-carbamoyl)methyl]carbamoyl})methyl]-5-fluoro-1,3-benzothiazol-6-yl}phenyl) carbamate] | 0.002 µM | –
CC(=O)Nc1cccc(-c2cc3nc(C(C(=O)NCC(=O)NC4CC4)S(C)(=O)=O)sc3cc2F)c1 (stereo not shown) [Example 115, N-[(cyclopropyl-carbamoyl)methyl]-2-[5-(3-acetamidophenyl)-6-fluoro-1,3-benzothiazol-2-yl]-2-methanesulfonyl-acetamide] | 0.012 µM | –
CC(C)S(=O)(=O)C(C(=O)NCC(=O)NC1CC1)c1nc2cc(-c3cccnc3F)c(F)cc2s1 (stereo not shown) [Example 272, N-[(cyclopropyl-carbamoyl)methyl]-2-[6-fluoro-5-(2-fluoropyridin-3-yl)-1,3-benzothiazol-2-yl]-2-(propane-2-sulfonyl)acetamide] | 0.029 µM | –
CS(=O)(=O)C(C(=O)NCC(=O)NC1CC1)c1nc2cc(F)c(-c3cccc(Cl)c3)cc2s1 (stereo not shown) [Example 39, 2-[6-(3-chlorophenyl)-5-fluoro-1,3-benzothiazol-2-yl]-N-[(cyclopropyl-carbamoyl)methyl]-2-methanesulfonyl-acetamide] | 0.003 µM | –
Cc1ncc(-c2ccc3nc(C(C(=O)NCC(=O)NC4CC4)S(=O)(=O)Cc4cccc(C#N)c4)sc3c2)cn1 (stereo not shown) [Example 21, 2-[(3-cyanophenyl)methanesulfonyl]-N-[(cyclopropyl-carbamoyl)methyl]-2-[6-(2-methylpyrimidin-5-yl)-1,3-benzothiazol-2-yl]acetamide] | 0.145 µM | –
CS(=O)(=O)C(C(=O)NCC(=O)NC1CC1)c1nc2ccc(-c3ccc(F)nc3)cc2s1 (stereo not shown) [Example 57, N-[(cyclopropyl-carbamoyl)methyl]-2-[6-(6-fluoropyridin-3-yl)-1,3-benzothiazol-2-yl]-2-methanesulfonyl-acetamide] | 0.047 µM | –
COC(=O)Nc1ccc(-c2cc3nc(C(C(=O)NCC(=O)NC4CC4)S(C)(=O)=O)sc3cc2F)cc1F (stereo not shown) [Example 122, methyl N-{4-[2-({[(cyclopropyl-carbamoyl)methyl]carbamoyl} (methanesulfonyl)methyl)-6-fluoro-1,3-benzothiazol-5-yl]-2-fluorophenyl} carbamate] | 0.007 µM | –
CC(=O)Nc1cccc(-c2ccc3nc(C(C(=O)NCC(=O)NC4CC4)S(C)(=O)=O)sc3c2)c1 (stereo not shown) [Example 111, N-[(cyclopropyl-carbamoyl)methyl]-2-[6-(3-acetamidophenyl)-1,3-benzothiazol-2-yl]-2-methanesulfonyl-acetamide] | 0.023 µM | –
CC(=O)N(C)c1ccc(-c2cc3sc(C(C(=O)NCC(=O)NC4CC4)S(C)(=O)=O)nc3cc2F)cc1 (stereo not shown) [Example 31, N-[(cyclopropyl-carbamoyl)methyl]-2-{5-fluoro-6-[4-(N-methylacetamido)phenyl]-1,3-benzothiazol-2-yl}-2-methanesulfonyl-acetamide] | 0.011 µM | –
